Experimental data taken from ChEMBL document CHEMBL5532663, “Discovery of Potent and Selective Phosphatidylinositol 3-Phosphate 5-Kinase (PIKfyve) Inhibitors as Methuosis Inducers” (J Med Chem, 2024).

Experiments:
HeLa = assay: cells; conditions: Homo sapiens, 24 h
Description: Antiproliferative activity against human HeLa cells assessed as inhibition of cell viability incubated for 24 hrs by CCK8 assay

MDA-MB-231 = assay: cells; conditions: Homo sapiens, MDA-MB-231, 24 h
Description: Antiproliferative activity against human MDA-MB-231 cells assessed as inhibition of cell viability incubated for 24 hrs by CCK8 assay

[1] = target: T1, 1-phosphatidylinositol 3-phosphate 5-kinase (Homo sapiens, UniProt Q9Y2I7)
[2] = target: T1, 1-phosphatidylinositol 3-phosphate 5-kinase; assay: Binding affinity to PIKfyve (unknown origin) assessed as dissociation constant by KINOMEscan profiling method

T1 sequence (Q9Y2I7 whole entry): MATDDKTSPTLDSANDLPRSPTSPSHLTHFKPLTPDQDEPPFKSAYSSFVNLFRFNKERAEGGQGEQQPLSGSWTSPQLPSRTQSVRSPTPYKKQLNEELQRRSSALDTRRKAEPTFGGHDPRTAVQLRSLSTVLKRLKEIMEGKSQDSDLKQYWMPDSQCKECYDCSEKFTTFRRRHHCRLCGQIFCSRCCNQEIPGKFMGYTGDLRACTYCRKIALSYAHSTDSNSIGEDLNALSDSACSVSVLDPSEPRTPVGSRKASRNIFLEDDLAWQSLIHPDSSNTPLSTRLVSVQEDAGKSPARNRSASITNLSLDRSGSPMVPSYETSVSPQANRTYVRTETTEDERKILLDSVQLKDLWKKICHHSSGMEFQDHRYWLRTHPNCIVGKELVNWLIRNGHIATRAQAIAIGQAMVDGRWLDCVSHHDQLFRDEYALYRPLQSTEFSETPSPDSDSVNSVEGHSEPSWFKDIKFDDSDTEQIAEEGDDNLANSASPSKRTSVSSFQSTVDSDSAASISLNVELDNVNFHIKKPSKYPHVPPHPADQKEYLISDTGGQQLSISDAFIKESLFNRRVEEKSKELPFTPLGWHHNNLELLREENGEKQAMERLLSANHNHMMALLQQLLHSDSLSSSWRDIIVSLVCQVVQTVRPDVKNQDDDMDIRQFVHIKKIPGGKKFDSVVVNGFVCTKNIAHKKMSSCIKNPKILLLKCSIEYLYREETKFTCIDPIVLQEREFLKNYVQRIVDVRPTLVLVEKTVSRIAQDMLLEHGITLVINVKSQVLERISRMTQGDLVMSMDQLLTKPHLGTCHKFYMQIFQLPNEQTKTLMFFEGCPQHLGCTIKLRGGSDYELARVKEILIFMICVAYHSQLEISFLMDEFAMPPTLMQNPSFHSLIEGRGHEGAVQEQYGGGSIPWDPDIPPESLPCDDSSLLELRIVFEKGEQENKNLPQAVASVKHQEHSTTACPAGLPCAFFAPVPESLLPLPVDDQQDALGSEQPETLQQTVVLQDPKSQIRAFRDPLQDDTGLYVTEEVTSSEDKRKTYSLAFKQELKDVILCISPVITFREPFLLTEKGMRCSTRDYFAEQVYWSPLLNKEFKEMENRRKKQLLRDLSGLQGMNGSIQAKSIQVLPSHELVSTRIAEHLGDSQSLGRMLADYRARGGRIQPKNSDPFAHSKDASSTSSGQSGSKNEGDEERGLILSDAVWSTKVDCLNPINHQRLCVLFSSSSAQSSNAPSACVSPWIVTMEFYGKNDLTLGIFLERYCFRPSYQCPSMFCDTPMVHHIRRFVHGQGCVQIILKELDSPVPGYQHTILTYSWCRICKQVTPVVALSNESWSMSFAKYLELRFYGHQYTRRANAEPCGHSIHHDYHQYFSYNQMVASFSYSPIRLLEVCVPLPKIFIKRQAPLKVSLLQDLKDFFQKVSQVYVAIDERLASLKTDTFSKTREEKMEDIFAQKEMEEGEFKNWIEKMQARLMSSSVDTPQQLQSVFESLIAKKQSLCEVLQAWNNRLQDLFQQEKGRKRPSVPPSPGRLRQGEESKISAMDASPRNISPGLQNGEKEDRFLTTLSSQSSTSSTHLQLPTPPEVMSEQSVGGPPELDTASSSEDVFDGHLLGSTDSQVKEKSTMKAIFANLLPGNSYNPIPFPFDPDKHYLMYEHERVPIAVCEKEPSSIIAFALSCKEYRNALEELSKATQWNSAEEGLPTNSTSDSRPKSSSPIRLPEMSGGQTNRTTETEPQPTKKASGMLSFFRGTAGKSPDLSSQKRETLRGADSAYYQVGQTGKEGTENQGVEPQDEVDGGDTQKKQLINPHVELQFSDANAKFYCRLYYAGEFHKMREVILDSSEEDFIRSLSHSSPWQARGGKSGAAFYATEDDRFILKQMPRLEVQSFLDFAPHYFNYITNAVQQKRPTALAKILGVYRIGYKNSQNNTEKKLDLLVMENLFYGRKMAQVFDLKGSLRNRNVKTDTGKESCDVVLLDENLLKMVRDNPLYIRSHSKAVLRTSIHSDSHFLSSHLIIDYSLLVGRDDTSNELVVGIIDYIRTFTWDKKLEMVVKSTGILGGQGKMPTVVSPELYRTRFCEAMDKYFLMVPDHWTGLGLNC

Compound | IC50 (HeLa) | IC50 (MDA-MB-231) | Kd [1] | Kd [2]
Nc1ncnc2c1c(-c1coc3ccccc13)cn2[C@H]1CC[C@@H](N)CC1 | > 5 µM | > 5 µM |  | 
COc1ccc2[nH]c(C)c(/C=C/C(=O)c3ccncc3)c2c1 |  |  | 0.00375 µM | 0.0053 µM
Cc1cccc(/C=N/Nc2cc(N3CCOCC3)nc(OCCc3ccccn3)n2)c1 [APILIMOD] | 0.14 µM | 0.1 µM |  | 
Nc1ncnc2c1c(-c1cc3ccccc3o1)cn2[C@H]1CC[C@@H](N)CC1 | 0.43 µM | 0.35 µM | 0.00165 µM | 
